Laboratory results reported in US10030027B2, “Soluble guanylate cyclase stimulators” (MERCK SHARP & DOHME CORP., priority 2015, dated 2018).

Experiments:
sGC α1/β1 heterodimer = sGC α1/β1 heterodimer (Homo sapiens (Human), UniProt Q02108+Q02153); assay: Cell-based sGC functional assay (cyclic GMP assay for sGC activator: CASA assay); conditions: CHO-K1/sGC cells; for Emax: CHO-K1, activity expressed as percentage of compound A (standard), read-out: % Activation; for EC50: inflection point, 4P fit, read-out: IP
Summary of the method: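 CHO-K1 cells stably expressing sGC α1/β1 were pre-incubated with or without 1 μM DETA-NO (30 min, 25 °C), then exposed to compounds for 1 hr at 37 °C with 0.5 mM IBMX. Intracellular cGMP was read by HTRF and expressed as a percentage of a reference heme-dependent activator's maximum.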

[1] = system: Spontaneously hypertensive rats (SHR); assay: Acute efficacy in spontaneously hypertensive rats (SHR); type: in vivo, rat
Source text: Acute Efficacy in Spontaneously Hypertensive Rats (SHR)
Spontaneously hypertensive rats (SHR, male, Charles River) were implanted with DSI TA11PA-C40 telemetry device (Data Sciences, Inc., St. Paul, Minn.) under isoflurane or ketamine/metomidine anesthesia. The telemetry unit catheter was inserted into the descending aorta via the femoral artery and the telemetry device was implanted subcutaneously in the left flank area. Animals were allowed to recover from surgery for 14 days before the start of any studies. Blood pressure, heart rate, and activity signals from conscious, freely moving rats were recorded continuously for 30 seconds every 10 minutes. On the day prior to administration of compound, a single oral dose of vehicle (10% transcutol/20% Cremophor/70% water) was administered to all animals to establish baseline control data. The blood pressure lowering efficacy of compound (PO) or vehicle was evaluated following a single oral gavage. Data were collected as hourly averages, and changes in blood pressure were calculated by subtracting control baseline data on an hourly basis. Animals were maintained on normal diet with a 12 hour light-dark cycle.
Maximum peak decreases of systolic blood pressure (SBP) in SHR at a particular P.O. dose (mpk milligrams per kilogram) for the following Example compounds are provided.

[2] = system: hypoxia-induced pulmonary hypertension rat; assay: Acute efficacy in hypoxia-induced pulmonary hypertension in rat following intratracheal administration; type: in vivo
Source text: Acute Efficacy in Hypoxia-Induced Pulmonary Hypertension in Rat Following Intratracheal Administration Charles River Sprague-Dawley (CD) male rats weighing approximately 350 g were implanted with HD-S21 dual pressure telemetry transmitters (Data Sciences International (DSI)) into the pulmonary artery and femoral artery. This transmitter enables simultaneous measurement of both pulmonary and systemic hemodynamic parameters in the same animal. After a 7-10 day post-operative recovery period, animals were subjected to a normobaric hypoxic (10% oxygen) environment using a Higher Peak Mountain Air Generator (MAG-10) connected to a modified rodent cage via a fitted inlet port. Oxygen (at 10%), temperature, humidity, and CO2 were controlled within normal range and animals were maintained on a 12 hour light-dark cycle with ad libitum access to food and water. After two weeks exposure to 10% O2 hypoxic environment, systolic pulmonary arterial pressure readings increased from 25 mmHg to greater than 50 mmHg. Using a 48 hour baseline average, animals with readings between 50-110 mmHg (standard deviation of less than 10 mmHg) and minimal changes in systolic systemic blood pressure were enrolled for study. Animals were utilized for up to 2 studies per week for 4 weeks with a minimum of 2 days washout between doses of test agent. Compound or vehicle was administered intra-tracheally under light isoflurane anesthesia (5% in oxygen; flow rate 2.0 L/min for 3 minutes). Once anesthetized, rats were placed on an angled intubation stand in supine position and the trachea visualized using a small laryngoscope. Animals then received either 0.5 mL/kg of vehicle or 0.5 mL/kg vehicle containing compound intra-tracheally delivered via microsprayer by use of a Penn-Century Microsprayer® needle 3″ (Model IA-1B-GP) attached to a 1 mL high pressure syringe (Penn Century-Model B-SYR-PL1000) (Penn-Century, Philadelphia, Pa.). The Microsprayer® tip was inserted into the trachea up to the point at which the bend in the needle is close to the tip of the snout, which positions the tip of the Microsprayer® in front of the carina (bifurcation of trachea at the bronchi). After dose delivery the animal is placed on its back in the home cage for recovery. Hemodynamic measurements were continuously recorded and readings consolidated to hourly moving averages. Each animal received a vehicle on Day 1 followed by vehicle or test agent on Day 2. Change from vehicle baseline was calculated by subtracting the hourly Day 1 vehicle response from the hourly Day 2 response and treatment group data was expressed as mean±SEM. Decreases of systolic blood pressure (SBP) and systolic pulmonary arterial pressure (PAP) were measured at a particular IT dose (mpk milligrams per kilogram) for the following Example compounds.

[3] = biological target: human recombinant sGC enzyme (Homo sapiens (Human), UniProt Q02108+Q02153); assay: Size Exclusion Chromatography (SEC) competition binding assay using [3H] Ex-77B as the radioligand; conditions: [3H] Ex-77B radioligand, 24 hours at 37° C.
Summary of the method: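 Recombinant human sGC binding measured by competition against tritiated Ex-77B radioligand, with non-specific binding defined by 1 μM unlabeled Ex-77B.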

| SMILES | Emax (sGC α1/β1 heterodimer) | EC50 (sGC α1/β1 heterodimer) | Category: maximum peak decrease of systolic blood pressure (SBP) in SHR ([1]; Dose P.O. 3 mpk) | Category: decrease in SBP (at minimum decrease in PAP of ≥15 mmHg) ([2]; Dose IT 0.03 mpk) | Ki [3] | Category: maximum peak decrease of systolic blood pressure (SBP) in SHR ([1]; Dose P.O. 0.3 mpk) | Category: maximum peak decrease of systolic blood pressure (SBP) in SHR ([1]; Dose P.O. 1 mpk) | Category: decrease in SBP (at minimum decrease in PAP of ≥15 mmHg) ([2]; Dose IT 0.01 mpk) | Category: decrease in SBP (at minimum decrease in PAP of ≥15 mmHg) ([2]; Dose IT 0.1 mpk) |
| --- | --- | --- | --- | --- | --- | --- | --- | --- | --- |
| C[C@@]1(c2ccc(CCC(=O)O)cc2)C(=O)Nc2nc(-c3nn(CCC(F)(F)C(F)(F)F)c4cc(F)ccc34)nc(N)c21 [Example 46B, (S)-3-(4-{4-amino-2-[6-fluoro-1-(3,3,4,4,4-pentafluorobutyl)-1H-indazol-3-yl]-5-methyl-6-oxo-6,7-dihydro-5H-pyrrolo[2,3-d]pyrimidin-5-yl}phenyl)propanoic acid] | 95% | 647 nM | A (decrease in SBP in SHRs 5-25 mmHg) | A (decrease in SBP 0-5 mmHg) | 0.216 nM |  |  |  |  |
| CC(C)(Cc1csc([C@]2(C)C(=O)Nc3nc(-c4nn(CCC(F)(F)C(F)(F)F)c5cc(Cl)ccc45)nc(N)c32)n1)C(=O)O [Example 92B, (S)-3-(2-{4-amino-2-[6-chloro-1-(3,3,4,4,4-pentafluorobutyl)-1H-indazol-3-yl]-5-methyl-6-oxo-6,7-dihydro-5H-pyrrolo[2,3-d]pyrimidin-5-yl}-1,3-thiazol-4-yl)-2,2-dimethylpropanoic acid] | 111% | 219 nM |  | A (decrease in SBP 0-5 mmHg) | 0.175 nM | A (decrease in SBP in SHRs 5-25 mmHg) |  |  |  |
| CC(C)(Cc1csc([C@]2(C)C(=O)Nc3nc(-c4nn(CCC(F)(F)C(F)(F)F)c5ncccc45)nc(N)c32)n1)C(=O)O (single isomer, unassigned) [Example 77B] | 105% | 489 nM |  | A (decrease in SBP 0-5 mmHg) | 0.232 nM |  | C (decrease in SBP in SHRs>40 mmHg) |  |  |
| C[C@@]1(c2ccc(CCC(=O)O)cc2)C(=O)Nc2nc(-c3nn(CCC(F)(F)C(F)(F)F)c4cc(Cl)ccc34)nc(N)c21 [Example 10B, (S)-3-(4-{4-Amino-2-[6-chloro-1-(3,3,4,4,4-pentafluorobutyl)-1H-indazol-3-yl]-5-methyl-6-oxo-6,7-dihydro-5H-pyrrolo[2,3-d]pyrimidin-5-yl}phenyl)propanoic acid] | 117% | 456 nM | A (decrease in SBP in SHRs 5-25 mmHg) |  | 0.15 nM |  |  | A (decrease in SBP 0-5 mmHg) |  |
| CC(C)(Cc1coc(C2(C)C(=O)Nc3nc(-c4nn(CCC(F)(F)C(F)(F)F)c5cc(Cl)ccc45)nc(N)c32)n1)C(=O)O (stereo not shown) [Example 2A, 3-(2-{4-amino-2-[6-chloro-1-(3,3,4,4,4-pentafluorobutyl)-1H-indazol-3-yl]-5-methyl-6-oxo-6,7-dihydro-5H-pyrrolo[2,3-d]pyrimidin-5-yl}oxazol-4-yl)-2,2-dimethyl-propanoic acid] | 111% | 1060 nM | A (decrease in SBP in SHRs 5-25 mmHg) | A (decrease in SBP 0-5 mmHg) | 0.322 nM |  |  |  |  |
| C[C@@]1(c2ccc(CCC(=O)O)cc2)C(=O)Nc2nc(-c3nn(CCC(F)(F)C(F)(F)F)c4ncccc34)nc(N)c21 (single isomer, unassigned) [Example 7A] | 98% | 1030 nM | A (decrease in SBP in SHRs 5-25 mmHg) |  | 0.154 nM |  |  |  | B (decrease in SBP 5-10 mmHg) |
| CC(C)(Cc1csc(C2(C)C(=O)Nc3nc(-c4nn(CCC(F)(F)C(F)(F)F)c5ncc(F)cc45)nc(N)c32)n1)C(=O)O (stereo not shown) [Example 84A, 3-(2-{4-amino-2-[5-fluoro-1-(3,3,4,4,4-pentafluorobutyl)-1H-pyrazolo[3,4-b]pyridin-3-yl]-5-methyl-6-oxo-6,7-dihydro-5H-pyrrolo[2,3-d]pyrimidin-5-yl}-1,3-thiazol-4-yl)-2,2-dimethylpropanoic acid] | 113% | 130 nM |  | A (decrease in SBP 0-5 mmHg) | 0.166 nM |  | C (decrease in SBP in SHRs>40 mmHg) |  |  |
| C[C@@]1(c2ccc(CCC(=O)O)cc2)C(=O)Nc2nc(-c3nn(Cc4ccccc4F)c4ncccc34)nc(N)c21 [Example 21B, (S)-3-(4-{4-amino-2-[1-(2-fluorobenzyl)-1H-pyrazolo[3,4-b]pyridin-3-yl]-5-methyl-6-oxo-6,7-dihydro-5H-pyrrolo[2,3-d]pyrimidin-5-yl}phenyl)propanoic acid] | 93% | 362 nM | A (decrease in SBP in SHRs 5-25 mmHg) | A (decrease in SBP 0-5 mmHg) | 0.064 nM |  |  |  |  |
